Data published in patent US12403169B2, “Compositions and methods related to Rhamnus prinoides (gesho) extract for the inhibition of polymicrobial biofilm formation” (GEORGIA STATE UNIVERSITY RESEARCH FOUNDATION, INC., priority 2018, dated 2025).
Each block holds one compound with its values, some of them ahead of it.

Tests used:
[1] = test system: Staphylococcus aureus biofilm formation; assay: microbe, parasite or virus in culture; conditions: for IC50 / CC50: Staphylococcus aureus; for IC50: 24 h, read-out: BP50; for CC50: read-out: category based on BP50 and LC50; for effect on biofilm formation: evaluated at 0.8% and 3%; for anti-biofilm activity (words): pure compounds
Method: Staphylococcus aureus and Streptococcus mutans biofilms were grown in Luria-Bertani (LB) broth and brain-heart infusion (BHI) medium containing 0.5% sucrose, respectively. Biofilm formation was assessed using a polystyrene 96 well microtiter plate crystal violet assay. Overnight broth cultures were diluted to an initial optical density (OD600) of 0.01 in fresh media and combined with gesho extract to obtain a final concentration of 7 mg/ml. Treatments were then serially diluted to final extract concentrations of 5, 3, 1, 0.5 and 0.25 mg/ml. Negative controls consisted of cells diluted to an initial optical density (OD600) of 0.01 in growth media without plant extract. 100 μl of treated and untreated samples were added to each well of a microtiter plate and incubated at 37° C. for 24 hours. After 24 hours, planktonic cells and spent growth media were removed from each well and the plate was washed three times in sterile water. Biofilms were then stained with 150 μl of 0.1% crystal violet for 15 minutes at 200 rpm. Excess dye was removed via washing in sterile water and the plate was allowed to air dry.
Staphylococcus aureus and Pseudomonas aeruginosa biofilms were grown in LB broth and PBM-glucose, respectively. Biofilm formation was assessed using a polystyrene 96 well microtiter plate crystal violet assay. […] DMSO was added to solubilize the treatments. Negative controls consisted of cells diluted to an initial OD600 of 0.01 in growth media without treatment. 100 μl of treated and untreated samples were added to each well of a microtiter plate and incubated at 37° C. for 24 h. After 24 h, planktonic cells and spent growth media were removed from each well and the plate was washed 3 times in sterile water. Biofilms were then stained with 150 μl of 0.1% crystal violet for 15 min at 200 rpm. Excess dye was removed via washing in sterile water and the plate was allowed to air dry.
Biofilm formation was assessed using a polystyrene 96 well microtiter plate crystal violet assay.^23 Overnight broth cultures were diluted to an initial OD600 of 0.01 in fresh LB and combined with a target compound to obtain a final concentration of 7 mg/ml. Treatments were then serially diluted to final extract concentrations of 5, 3, 1, 0.5 and 0.25 mg/ml. No vehicles were added to solubilize the treatments. Untreated cells served as negative controls. 100 μl of treated and untreated samples were added to each well of a microtiter plate and incubated at 37° C. for 24 h. After 24 h, planktonic cells and spent growth media were removed from each well and the plate was washed 3 times in sterile water. Biofilms were then stained with 150 μl of 0.1% crystal violet for 15 min at 200 rpm. Excess dye was removed via washing in sterile water and the plate was allowed to air dry. […] The molarity of each treatment was calculated using excel.

[2] = test system: Staphylococcus aureus growth; assay: Staphylococcus aureus growth curve; assay type: cell-based, Staphylococcus aureus ATCC 6538
Method: 2 mL of each treatment was added to 19 culture tubes and the samples were incubated for 24 h at 37° C. with shaking at 200 rpm. 1 mL of each sample was transferred to a cuvette and the absorbance measurements at 600 nm were taken every hour for 9 hours. 24 h measurements were taken the following day. Untreated samples and samples containing 1.6 μg/mL vancomycin served as a negative and positive controls, respectively. Growth rates were calculated using the slope of the log phase of growth (t=0 h and t=4 h).

[3] = test system: Staphylococcus aureus biofilms; assay: Staphylococcus aureus biofilm killing assay (resazurin); assay type: cell-based, Staphylococcus aureus ATCC 6538; conditions: combination with vancomycin at its MBEC
Method: Staphylococcus aureus biofilms were formed as described above. Staphylococcus aureus biofilms were grown in LB broth. […] […]. Negative controls consisted of 100 μL of fresh LB without compound or antibiotic. […] 100 μL of 10 μg/mL resazurin in LB was added to each biofilm and the plate was statically incubated at 37° C. for 3 hrs. During incubation, fluorescence intensity was measured at λex=570 nm λem=590 nm every 6 minutes using an Enspire fluorescence plate reader. Data was normalized to the emission at t=0 and the rates of resazurin conversion to resorufin was calculated to identify the time at which maximum fluorescence was achieved.

[4] = test system: Staphylococcus aureus hydrophobicity; assay: Hydrophobicity test (microbial adherence to hydrocarbon); assay type: cell-based; conditions: 0.2 or 0.4 mg/mL, 24 h
Method: Hydrophobicity analysis was conducted according to Ciccio, et al., 2015 with a few modifications. Three milliliters of Staphylococcus aureus cultures were grown in the presence of 4-ethoxybenzoic acid (0.2 or 0.4 mg/mL) or methyl gallate (0.2 or 0.4 mg/mL) for 24 h at 37° C. with shaking at 200 rpm. Cultures were diluted to an OD600 of 0.6 and washed with 1 mL PBS. 5 mL of the inoculum was produced, 1 mL was removed for plating on growth agar and 1 mL of hexadecane was applied to the air-liquid interface or the remaining 4 mL. Hexadecane samples were vortexed for 1 min and the phases allowed to separate for 15 minutes at room temperature. 1 mL of the aqueous layer was removed and plated on growth agar. Agar plates were incubated at 37° C. overnight and plate counts were conducted the following day. Results were interpreted as the percent of cells present in the aqueous layer prior to (A0) and after (A1) the addition of hexadecane [(A0−A1)/A0]*100.

[5] = test system: Staphylococcus aureus log-phase planktonic cells; assay: Log-phase cell antimicrobial assay; assay type: cell-based, Staphylococcus aureus ATCC 6538; conditions: pure compounds, with or without 1% DMSO
Method: Bacteria were inoculated in 20 ml of growth media at an initial optical density (OD600) of 0.01 and incubated at 37° C., 200 rpm until log-phase was reached. One milliliter of log-phase cells was transferred to 1.5 ml microfuge tubes and growth media removed via centrifugation. Pelleted cells were washed twice with phosphate buffered saline (PBS) before resuspending the pellets in 1 ml of extract dissolved in PBS. Treatments were incubated at 37° C. for 1 hour then serially diluted in PBS and radially plated on growth agar.
Bacteria were inoculated in 20 ml of growth media at an initial optical density (OD600) of 0.01 and incubated for 4±1 h at 37° C. with shaking at 200 rpm until log phase (OD600≈0.35) was reached. 1 ml of log-phase cells was transferred to 1.5 ml microfuge tubes and the growth medium was removed via centrifugation. Pelleted cells were washed twice with phosphate buffered saline (PBS) before resuspending the pellets in 1 ml of 4-ethoxybenzoic acid or methyl gallate with or without vancomycin dissolved in PBS. Treatments were incubated at 37° C. for 1 h and then serially diluted in PBS and radially plated on growth agar.

[6] = test system: Staphylococcus aureus stationary phase planktonic cells; conditions: pure compounds, with or without 1% DMSO
Method: To assess the viability of stationary phase planktonic cell, a growth agar based assay was conducted. Spent media containing stationary phase planktonic cells was collected after a biofilm formation assay. Collected cells were serially diluted in PBS and dilutions were radially plated in 10 μl volumes on growth medium. Agar plates were incubated at 37° C. overnight to allow for colony formation. Plate counts were used to assess viability.
To assess the viability of stationary phase planktonic cells, a growth agar-based assay was conducted. Spent media containing stationary phase planktonic cells were collected from microtiter plates after the conclusion of each biofilm formation assay. The collected cells were serially diluted (1:10) in PBS and dilutions were radially plated in 10 μl volumes on growth medium. Agar plates were incubated at 37° C. overnight to allow for colony formation and plate counts were used to assess viability. Colony forming units per milliliter of culture (CFU/mL) was calculated by dividing the colony counts (C) by the volume added (V) multiplied by the dilution factor (D): […]

biofilm = assay: Screen of other compounds for anti-biofilm effect; assay type: cell-based

IC50 [1]: 17.3 mM
SMILES: O=C(O)c1cc(O)c(O)c(O)c1 [gallic acid]
CC50 [1]: > 7.5 mM

SMILES: O=C(O)c1cccc(O)c1 [3-hydroxybenzoic acid]
IC50 [1]: 9.6 mM
CC50 [1]: < 15 mM

SMILES: COC(=O)c1cc(O)c(O)c(O)c1 [methyl gallate]
IC50 [1]: 0.82 mM
CC50 [1]: < 7.5 mM
Percent attenuation ([2]; 1.1 mM): 30%
Growth rate ([2]; 1.1 mM, t=0 to t=4 h): 0.77 log replications/hr
Percent attenuation ([2]; 1.2 mM): 46%
Growth rate ([2]; 1.2 mM, t=0 to t=4 h): 0.59 log replications/hr
synergism with vancomycin in biofilm killing [3]: did not exhibit synergism
hydrophobicity of S. aureus [4]: decreased the hydrophobicity

IC50 [1]: 2.9 mM
SMILES: CCCOC(=O)c1cc(O)c(O)c(O)c1 [propyl gallate]
CC50 [1]: < 15 mM

IC50 [1]: 9.2 mM
SMILES: O=C(O)c1cc(O)ccc1O [gentisic acid, 2,5-dihydroxybenzoic acid]

SMILES: O=C(O)c1ccc(O)cc1 [p-hydroxybenzoic acid, 4-hydroxybenzoic acid]
IC50 [1]: 8 mM
CC50 [1]: < 15 mM

SMILES: CCCC(C)=O [2-pentanone, reference compound]
effect on biofilm formation [1]: Neither benzoic acid nor 2-pentanone had a statistically significant effect on biofilm formation

IC50 [1]: 6.7 mM
SMILES: CCOC(=O)c1cc(O)c(O)c(O)c1 [ethyl gallate]
CC50 [1]: < 15 mM

SMILES: O=C(O)c1ccccc1 [benzoic acid, reference compound]
effect on biofilm formation [1]: Neither benzoic acid nor 2-pentanone had a statistically significant effect on biofilm formation

SMILES: O=C(O)c1ccc(O)c(O)c1 [protocatechuic acid, 3,4-dihydroxybenzoic acid]
IC50 [1]: 14.4 mM
CC50 [1]: < 15 mM

SMILES: CN[C@H](CC(C)C)C(=O)N[C@H]1C(=O)N[C@@H](CC(N)=O)C(=O)N[C@H]2C(=O)N[C@H]3C(=O)N[C@H](C(=O)N[C@H](C(=O)O)c4cc(O)cc(O)c4-c4cc3ccc4O)[C@H](O)c3ccc(c(Cl)c3)Oc3cc2cc(c3O[C@@H]2O[C@H](CO)[C@@H](O)[C@H](O)[C@H]2O[C@H]2C[C@](C)(N)[C@H](O)[C@H](C)O2)Oc2ccc(cc2Cl)[C@H]1O [vancomycin, reference compound]
Growth rate ([2]; 1.1 μM, positive control): 0.0 log replications/hr
Percent attenuation ([2]; 1.1 μM, positive control): 100%

SMILES: COC(=O)c1ccc(O)cc1 [methyl paraben, 4-hydroxybenzoic acid methyl ester]
Percent attenuation ([2]; 5.2 mM): 25%
Growth rate ([2]; 5.2 mM, t=0 to t=4 h): 0.83 log replications/hr

SMILES: CCOC(=O)c1ccc(OCC)cc1 [EEB, ethyl 4-ethoxybenzoate]
antibacterial activity against log phase cells [5]: did not show antibacterial activity
antibacterial activity against stationary phase cells [6]: did not show antibacterial activity
CC50 [1]: > 7.5 mM
effect of DMSO on anti-biofilm activity ([1]; combined with 1% DMSO): presence of DMSO increased the anti-biofilm activity of EEB
anti-biofilm activity (words) [1]: significant anti-biofilm activity
anti-biofilm activity (words) ([1]; listed as ethyl 4-ethoxybenzoate): anti-biofilm activity

IC50 [1]: 4.8 mM
SMILES: O=C(O)c1cccc(O)c1O [pyrocatechuic acid, 2,3-dihydroxybenzoic acid]
CC50 [1]: < 15 mM

SMILES: CCCCCCCCC(C)O (stereo not shown) [2-decanol]
anti-biofilm effect (biofilm): anti-biofilm effect

SMILES: CCOc1ccc(C(=O)O)cc1 [4-ethoxybenzoic acid]
IC50 [1]: 1.6 mM
CC50 [1]: < 7.5 mM
Percent attenuation ([2]; 1.2 mM): 12%
Growth rate ([2]; 1.2 mM, t=0 to t=4 h): 0.97 log replications/hr
Percent attenuation ([2]; 2.4 mM): 47%
Growth rate ([2]; 2.4 mM, t=0 to t=4 h): 0.58 log replications/hr
synergism with vancomycin in biofilm killing [3]: synergistic effects
hydrophobicity of S. aureus [4]: decreased the hydrophobicity

IC50 [1]: 38.5 mM
SMILES: O=C(O)c1ccccc1O [salicylic acid, 2-hydroxybenzoic acid]
CC50 [1]: > 7.5 mM
